Measurements reported in patent US20210363110A1, “4-METHYLDIHYDROPYRIMIDINONE COMPOUNDS AND PHARMACEUTICAL USE THEREOF” (Japan Tobacco Inc., priority 2018, published 2021).
Converted amounts (≈) assume the structure as drawn. Where two headings read alike, the source gives them in different places.

Columns and labels:
[1] = Metabolic stability in liver microsomes, dog; assay type: in vitro ADME; conditions: residual ratio of unreacted substance, 0.2 mg/mL microsomes, NADPH generating system
Method: (§1) A test solution was prepared by diluting 10 mM DMSO solution of a test substance with acetonitrile by 100 times.
(§2) Human and animal liver microsomes (SEKISUI XENOTECH; Human (H2610), Rat (R1000), Mouse (M1000), Monkey (P2000), Dog (D1000)) were adjusted with potassium phosphate buffer (pH 7.4) to 0.2 mg/mL in the reaction system. Then, 1% of the solution of a test substance prepared was added to the reaction system. Thereto was added an NADPH generating system (prepared according to the method of Non Patent Literature 28), and the metabolic reaction was initiated. At a designated time, 0.1% formic acid-acetonitrile/water (3:1) was added thereto, and the reaction was terminated.
(§3) The sample after termination of the reaction was separated by centrifugation (1400 g, 20 min.), and then the supernatant was measured by LC/MS (UPLC-SQD (waters)) to calculate a residual ratio of unreacted substances.

[2] = system: IL-17 production in plasmas; experiment: IL-17 production in plasmas of cytokine-stimulated normal mice; assay type: in vivo, C57BL/6J mice; conditions: 0.1 mg/mL suspension, 0.2 mL/head orally, single, 28 hours before IL-1 beta/IL-23 i.v.; blood 2 hours after cytokine
Method: Effects of test substances on IL-17 production in plasmas were assessed in normal mice. The assessment was performed according to Non Patent Literature 32. Nine-week old female C57BL/6J mice (Japan Charles River K. K.) were used as a test animal.
A mixed solution prepared by mixing Recombinant Mouse IL-1 beta/IL-1F2 Protein (R&D systems, INC.) and Recombinant Mouse IL-23 Protein (R&D systems, INC.) at a final concentration of 1.5 μg/mL was administered intravenously to all groups at the tail vein at a volume of 200 μL/head. Blood was collected 2 hours after the administration of cytokine solution.
Administration was performed 28 hours before the administration of cytokine solution. 0.5% (w/v) methyl cellulose (MC) and 0.1 mg/mL of a test substance suspended in 0.5% (w/v) MC were administered orally at a single volume of 0.2 mL/head to Vehicle group and a compound-administered group, respectively.
Blood was separated by centrifugation, and then the IL-17 concentration in plasma was measured with Quantikine (Registered trade mark) Mouse IL-17 ELISA Kit (R&D systems, Inc.).
The IL-17 concentration of Vehicle group was deemed to be 100%, and the IL-17 concentration percentage of the compound-administered group to the Vehicle group was calculated from the following equation.
%=a/b×100 a: IL-17 concentration of the compound-administered group b: IL-17 concentration of the Vehicle group

[3] = Metabolic stability in hepatocytes, monkey; assay type: in vitro ADME; conditions: residual ratio of unreacted substance, 1×10^6 cells/mL
Method: (§4) A test solution was prepared by diluting 10 mM DMSO solution of a test substance with acetonitrile by 20 times.
(§5) Human and animal cryopreserved hepatocyte (BIOIVT; Human (IVT-X008000), Rat (IVT-M00005), Monkey (IVT-M00305), Dog (IVT-M00205)) were adjusted with William's Medium E (SIGMA; W1878) to 1×10^6 cells/mL of a cell suspension, which was then added to a 96-well plate. Then, 1% of the solution of a test substance prepared was added to the reaction system, and the metabolic reaction was initiated. At a designated time, 0.1% formic acid-acetonitrile was added thereto, and the reaction was terminated.
as §3

[4] = Measurement of solubility (JP1, JP2, FaSSIF, FeSSIF); assay type: physicochemical; conditions: thermodynamic from solid, shaken 4 hours
Method: A 10 mM DMSO solution (10 μL) of test substance was added to a 96-well plate, and the mixture was concentrated and dried with a centrifugal evaporator (Genevac HT-4X). 200 μL of each solvent (JP1, JP2, FaSSIF, FeSSIF) (see Non Patent Literatures 29 and 30) was added to the well after evaporation. The mixture was shaken at room temperature at 2500 rpm for 4 hours. Then, the mixture was filtered in two parts with MultiScreen PCF filter (MERCK Millipore; MSSLBPC) to give samples (50 and 100 μL). 40 μL was collected from the sample obtained in the second filtration, and thereto was added acetonitrile (300 μL). After centrifugation (4000 g, 5 min.) of the mixture, a part of the supernatant was measured by LC-UV/MS (UPLC-Premier (waters)).

[5] = Metabolic stability in hepatocytes, human; assay type: in vitro ADME; conditions: residual ratio of unreacted substance, 1×10^6 cells/mL
Method: as §4, §5, §3

[6] = Metabolic stability in liver microsomes, rat; assay type: in vitro ADME; conditions: residual ratio of unreacted substance, 0.2 mg/mL microsomes, NADPH generating system
Method: as §1, §2, §3

[7] = Metabolic stability in liver microsomes, human; assay type: in vitro ADME; conditions: residual ratio of unreacted substance, 0.2 mg/mL microsomes, NADPH generating system
Method: as §1, §2, §3

[8] = Metabolic stability in liver microsomes, monkey; assay type: in vitro ADME; conditions: residual ratio of unreacted substance, 0.2 mg/mL microsomes, NADPH generating system
Method: as §1, §2, §3

[9] = pH 1.2, simulated gastric fluid, JP1, room temperature, read-out: Solubility JP1
[10] = pH 6.8, aqueous buffer, JP2, room temperature, read-out: Solubility JP2
[11] = FaSSIF, room temperature, read-out: Solubility FaSSIF
[12] = FeSSIF, room temperature, read-out: Solubility FeSSIF

| SMILES | Metabolic stability in liver microsomes at 60 min., Dog [1] [%] | IL-17 concentration (%) relative to Vehicle group [2] [%] | Metabolic stability in hepatocytes at 240 min., Monkey [3] [%] | solubility at 4 h [4, 9] [µM] | solubility at 4 h [4, 10] [µM] | solubility at 4 h [4, 11] [µM] | solubility at 4 h [4, 12] [µM] | Metabolic stability in hepatocytes at 240 min., Human [5] [%] | Metabolic stability in liver microsomes at 60 min., Rat [6] [%] | Metabolic stability in liver microsomes at 60 min., Human [7] [%] | Metabolic stability in liver microsomes at 60 min., Monkey [8] [%] |
| --- | --- | --- | --- | --- | --- | --- | --- | --- | --- | --- | --- |
| CC[C@H](C)C1=CN(C23CC(C(=O)O)(C2)C3)C(=O)N[C@@]1(C)c1ccc([C@@H]2C[C@H]2C(C)(C)C)c(Cl)c1 [Compound (2), 3-{(S)-5-((S)-sec-Butyl)-4-[4-((1R,2R)-2-tert-butyl-cyclopropyl)-3-chloro-phenyl]-4-methyl-2-oxo-3,4-dihydro-2H-pyrimidin-1-yl}bicyclo[1.1.1]pentane-1-carboxylic acid] | 95 | 67 | 85 | < 0.7 | 447 (≈ 217 µg/mL) | 445 (≈ 216 µg/mL) | 463 (≈ 225 µg/mL) | 94 | 95 | 96 | 96 |
| CC(C)C1=CN(C23CC(C(=O)O)(C2)C3)C(=O)N[C@@]1(C)c1ccc([C@@H]2C[C@H]2C(C)(C)C)c(Cl)c1 [Compound (1), 3-{(S)-4-[4-((1R,2R)-2-tert-Butyl-cyclopropyl)-3-chloro-phenyl]-5-isopropyl-4-methyl-2-oxo-3,4-dihydro-2H-pyrimidin-1-yl}bicyclo[1.1.1]pentane-1-carboxylic acid] | 98 | 52 | 83 | < 0.8 | 451 (≈ 212 µg/mL) | 470 (≈ 221 µg/mL) | ≥ 475 | 94 | 103 | 99 | 93 |
